Test results from article PMC7606641 (Biochemical pharmacology, 2020).
Marks after values point to notes of the source that are not given here.

Assays:
[1] = parameters: species or system CD-1 mice; conditions: mouse, in vivo, iv
[2] = parameters: species or system CD-1 mice; conditions: mouse, in vivo, iv; remark: listed apart in the source
[3] = parameters: species or system CD-1 mice; conditions: mouse, in vivo, iv; remark: listed apart in the source
[4] = parameters: species or system CD-1 mice; conditions: mouse, in vivo; for Blood to Brain Influx Ki: iv
[5] = Saturability of brain uptake; parameters: species or system CD-1 mice; conditions: mouse, in vivo, iv
[6] = format: physicochemical; conditions: pH 7.5
[7] = parameters: species or system CD-1 mice; conditions: mouse, in vivo, iv; remark: listed apart in the source
[8] = in vivo; cited from earlier work

Row | Substance | 125I-IRA remaining intact, Serum, 10 min [1] [%] | 125I-IRA remaining intact, Serum, 60 min [1] | 125I-IRA remaining intact, Whole Brain, 10 min [1] [%] | Capillary Depletion: Capillary (capillary/serum ratio) [2] [µL/g] | Capillary Depletion: Parenchyma (parenchyma/serum ratio) [2] [µL/g] | Half-Time Serum Clearance t1/2 [3] [min] | Initial Volume of Distribution in Brain Vi [4] [µL/g] | Blood to Brain Influx Ki [4] | Whole Brain brain/serum ratio, Without Unlabeled IRA [5] [µL/g] | Lipid Solubility Partition Coefficient [6] | Log Partition Coefficient (Log P) [6] | Degradation (loss of precipitable 125I-IRA) in serum from 10 to 60 min [1] | Degradation (loss of precipitable 125I-IRA) in whole brain from 10 to 60 min [1] | Capillary Depletion: %Parenchyma (percent of IRA reaching the brain found in parenchyma vs capillaries) [2] [%] | Percent of IRA reaching the brain trapped in the capillaries [2] [%] | Serum radioactivity, Without Unlabeled IRA [5] [cpm/μL] | Peak percent of injected 125I-IRA taken up per gram brain tissue (%Inj/g) [7] [%] | 125I-IRA remaining intact, Whole Brain, 60 min [1] | Percentage of injected dose entering the brain (%Inj/g) [8] [%]
1 | YXEGTFTSDYSIYLDKQAAXEFVNWLLAGGPSSGAPPPSK-NH2 [Peptide 18] | 99.85 ± 0.020 | 90.78 ± 4.440% | 107.8 ± 3.37 | 0.764 ± 0.092 | -0.306 ± 0.219 | 32.37 | 0.2034 ± 0.1134 | ns | 7.18 ± 0.202 | 0.2493 ± 0.0239 | −0.604 ± 0.0418 |  |  |  |  |  |  |  | 
2 | HAEGTFTSDVSSYLEGQAAK^aEFIAWLVRGRG-OH [Liraglutide] | 101.2 ± 0.062 | 100.18 ± 0.244^a % | 100.1 ± 4.206 |  |  | 167.22 | 2.434 ± 0.5977 | ns |  |  |  | less than 2% | less than 12% | 28.7 | 71.3 |  |  |  | 
3 | HXEGTFTSDVSSYLEGQAAK^bEFIAWLVRGRG-OH [Semaglutide] | 100.0 ± 0.031 | 98.91 ± 0.029^a % | 95.55 ± 1.139 | 0.434 ± 0.056 | -0.850 ± 0.533 | 149.31 | -0.340 ± 0.3285 | ns | 9.637 ± 0.308 | 0.0353 ± 0.0016 | −1.452 ± 0.0199 | less than 2% | less than 12% |  |  | 692.1 ± 55.27 |  |  | 
4 | YXEGTFTSDYSIYLDKQAAXEFVC ^*WLLAGGPSSGAPPPSK-NH2 [Peptide 20] | 100.16 ± 0.120 | 93.80 ± 1.850^a % | 99.4 ± 2.070 | 0.796 ± 0.252 | 0.615 ± 0.807 | 43 | 0.4075 ± 0.2728 |  | 9.51 ± 0.421 | 0.0057 ± 0.0008 | −2.249 ± 0.0671 |  |  | 43.6 | 56.4 | 217.3 ± 7.176 | 0.05 |  | 
5 | YXEGTFTSDYSIYLDKQAAXEFVNWLLAGGPSSGAPPPSKKKKKK-NH2 [DA-JC4] | 85.66 ± 1.866 | 63.32 ± 1.987^a % | 69.63 ± 16.36 | 1.129 ± 0.597 | 9.855 ± 2.751 | 151.94 | 2.495 ± 0.8554 | 0.6680 ± 0.1089 µL/g/min | 15.10 ± 1.243 | 0.0030 ± 0.0008 | −2.520 ± 0.1184 |  |  | 89.7 |  | 29.32 ± 2.014 | 0.17 | 47.99 ± 18.71% | 
6 | YXEGTFTSDYSIYLDKQAAXEFVNWLLAGGPSSGAPPPSK-NH2 [DA3-CH] | 93.26 ± 1.110 | 73.65 ± 3.138^a % | 71.59 ± 12.14 | 0.637 ± 0.073 | 3.918 ± 0.993 | 42.57 | 2.186 ± 0.5638 | 0.3922 ± 0.0668 µL/g/min | 20.86 ± 1.943 | 0.0048 ± 0.0015 | −2.325 ± 0.1318 | 19.6% | 44.9% | 86.02 |  | 65.07 ± 6.275 | 0.08 | 26.71 ± 17.23^a % | 
7 | YXEGTFTSDYSIYLDKQAAXEFVNWLLAGGPSSGAPPPSC-NH2 [Peptide 17] | 95.77 ± 0.350 | 81.20 ± 1.960^a % | 78.98 ± 3.930 | 0.543 ± 0.178 | 1.482 ± 0.462 | 39.61 | 1.057 ± 0.1876 | 0.3489 ± 0.0228 µL/g/min | 11.41 ± 0.528 | 0.0052 ± 0.0049 | −2.564 ± 0.5921 |  |  | 73.2 |  | 81.33 ± 6.720 | 0.15 | 52.91 ± 5.030^a % | 
8 | leptin: hormone crossing the BBB, literature comparison |  |  |  |  |  |  |  |  |  |  |  |  |  |  |  |  |  |  | 0.171
